Where two headings read alike, the source gives them in different places.

In data set [1] the test system is synthesis of intracellular triacylglycerols. Nature of the data set: Inhibitory activity on the synthesis of intracellular triacylglycerols, [14C] oleic acid incorporation in CHO-K1 cells. It counts as cell-based, Chinese hamster. Conditions: [1-14C] oleic acid, 6 hours incubation, read-out: IC50, inhibition of formation of [14C] triacylglycerols. As for the experimental part: The inhibitory activity on the synthesis of intracellular triacylglycerols of substance FKI-3864 according to the invention was tested in the manner described below.
Chinese hamster ovary cells (CHO-K1 cells) adjusted to 5.0×10^5 cells/mL with HAMs F12 medium (10% FBS, containing Penicillin/Streptomycin) were distributed on a 48-well plate in aliquots of 250 μL.
Then, after the cells were incubated at 37° C. for 12 hours in a 5% carbon dioxide gas incubator to adhere the cells, substance FKI-3864 (2.5 μL as a methanol solution) and [1−^14C] oleic acid (5 μL, 1.85 kBq, 1 nmol) were added, and incubation was continued for additional 6 hours.
The supernatant of the culture was removed, and after 0.1% SDS-Tris/HCl (pH 7.5, 120 μL) was added for lysis of the cells, neutral fat in the cells was extracted by the Bligh & Dyer method. After the extract was concentrated, it was spotted on a TLC (silica gel plate, Merck, 0.5 mm in thickness) and developed with a solvent of hexane/diethyl ether/acetic acid (70:30:1, v/v/v), and the quantity of isolated [^14C] triacylglycerols was determined with BAS 2000 (Fuji Film).
Using the same manner as in Test 1, the inhibitory activities on the synthesis of intracellular triacylglycerols of substances FKI-3864-1 and FKI-3864-2 were measured. […] In addition, the activities of mixtures in which substances FKI-3864-1 and FKI-3864-2 were mixed at different ratios are shown in Table 2.

A further data set is described as follows: Solubility in solvents. Format: physicochemical. The text has this: (7) Solubility in solvents: Soluble in methanol, chloroform, and ethyl acetate; insoluble in water.

What is called IC50 is the concentration at which inhibition is half-maximal. For the compound `CCCCCC(O)CC(O)CC1Cc2cc3cc(OC)c(-c4c(OC)cc5cc6c(c(O)c5c4O)C(=O)OC(CC(O)CC(O)CCCCC)C6)c(O)c3c(O)c2C(=O)O1` (single isomer, unassigned) [FKI-3864-2], the IC50 in data set [1] was determined as 540 nM. In addition, in the data set “Solubility in solvents”, the “Solubility in solvents: methanol, chloroform, and ethyl acetate” value (“Solubility in solvents: methanol” for short) is “Soluble”; the “Solubility in solvents: water” value is reported as “insoluble”.

In the case of `CCCCCC(O)CC(O)CC1Cc2cc3cc(OC)c(-c4c(OC)cc5cc6c(c(O)c5c4O)C(=O)OC(CC(O)CC(O)CCCCC)C6)c(O)c3c(O)c2C(=O)O1` (single isomer, unassigned) [FKI-3864-1], the IC50 in data set [1] is no less than 12000 nM. In the data set “Solubility in solvents”, the “Solubility in solvents: methanol” value is given as “Soluble”; the “Solubility in solvents: water” value is recorded as “insoluble”.

On to `CCCCCC(O)CC(O)CC1Cc2cc3cc(OC)c(-c4c(OC)cc5cc6c(c(O)c5c4O)C(=O)OC(CC(O)CC(O)CCCCC)C6)c(O)c3c(O)c2C(=O)O1` (stereo not drawn) [FKI-3864], for which, in data set [1] (Cricetulus griseus, CHO-K1, 6 h), the IC50 came out at 93 nM. In the data set “Solubility in solvents”, the “Solubility in solvents: methanol” value is recorded as “Soluble”; the “Solubility in solvents: water” value was “insoluble”.
